# Laboratory results as given in paper PMC8537386, “The Specificity and Broad Multitarget Properties of Ligands for the Free Fatty Acid Receptors FFA3/GPR41 and FFA2/GPR43 and the Related Hydroxycarboxylic Acid Receptor HCA2/GPR109A” (Pharmaceuticals, 2021).
# Read-outs that look alike come from different tables or passages of the source.
# Assays:
# FFA3/GPR41 = target: T1, FFA3/GPR41 (Homo sapiens, UniProt O14843); experiment: forskolin-stimulated cAMP accumulation assay, Flp-In-293 cells stably expressing FFA3/GPR41; type: cell-based; conditions: for inhibition at 50 µM / Emax: Flp-In-293; for inhibition at 50 µM: 50 µM compound, NA = not active up to 50 µM; for Emax / EC50: mean ± SD; for Emax: read-out: FFA3/GPR41 Emax, maximal inhibition of forskolin-stimulated cAMP (converted); for EC50: inhibition of forskolin-stimulated cAMP, absence of propionate, read-out: FFA3/GPR41 EC50; for activity towards FFA3/GPR41 (in words): cAMP assay
# T1 construct: host or cells: Flp-In-293
# T1 sequence (O14843 1-346): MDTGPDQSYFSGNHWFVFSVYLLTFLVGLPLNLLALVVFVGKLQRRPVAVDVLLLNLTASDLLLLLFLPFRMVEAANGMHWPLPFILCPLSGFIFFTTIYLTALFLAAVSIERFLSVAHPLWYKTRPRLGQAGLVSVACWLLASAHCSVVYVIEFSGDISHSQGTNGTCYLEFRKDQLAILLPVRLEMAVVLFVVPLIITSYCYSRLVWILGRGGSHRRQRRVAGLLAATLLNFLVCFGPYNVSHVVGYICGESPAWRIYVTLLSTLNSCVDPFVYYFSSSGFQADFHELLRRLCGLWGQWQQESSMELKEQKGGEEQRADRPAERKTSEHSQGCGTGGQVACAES
# Procedure: (§1) All of our synthesized compounds were evaluated in forskolin-stimulated cAMP accumulation assay using Flp-In-293 cells stably expressing human FFA2/GPR43, FFA3/GPR41 or HCA2/GPR109A receptors (Table 1, Table 2 and Table 3; Figure 2).
# (§2) Flp-In-293 cells (Invitrogen) were used for the generation of stable FFA3/GPR41 and FFA2/GRP43 cell lines using Flp-In System (Invitrogen). Flp-In-293 cells were cultured in Dulbecco’s modified Eagle medium (DMEM) supplemented with 10% fetal bovine serum (FBS), penicillin (100 U/mL), streptomycin (100 µg/mL), and zeocin (100 µg/mL). The cells were co-transfected with pOG44 (Invitrogen) and pcDNA5/FRT-FFA3 or pcDNA5/FRT-FFA2 using TurboFect (Thermo Fisher Scientific), and stable cell lines were generated according to the manufacturer’s protocol (Invitrogen). After transfection, the cells were cultured under selection pressure due to the presence of hygromycin B (100 µg/mL) in DMEM supplemented with 10% FBS, penicillin, and streptomycin.
# (§3) For cAMP assay, the cells were distributed into a 384-well white microplate at a density of 12,000 cells per well and stimulated with the indicated compounds in the presence of 3 μM forskolin for 30 min. […] The cells and the compounds were diluted in 1X phosphate-buffered saline (PBS) supplemented with 0.5 mM of 3-isobutyl-1-methylxanthine. The intracellular cAMP levels were measured using a Lance cAMP kit according to the manufacturer’s instructions. The plates were read on a PerkinElmer Victor 3V multilabel plate reader. The cAMP was quantitated in each sample by comparison to a calibration curve of known cAMP quantities provided in the kit.
# FFA2/GPR43 = target: T2, FFA2/GPR43 (Homo sapiens, UniProt O15552); experiment: forskolin-stimulated cAMP accumulation assay, Flp-In-293 cells stably expressing FFA2/GPR43; type: cell-based; conditions: for inhibition at 50 µM / Emax: Flp-In-293; for inhibition at 50 µM: 50 µM compound, NA = not active up to 50 µM; for activity towards FFA2/GPR43 (in words): cAMP assay; for Emax / EC50: mean ± SD; for Emax: read-out: FFA2/GPR43 Emax, maximal inhibition of forskolin-stimulated cAMP (converted); for EC50: inhibition of forskolin-stimulated cAMP
# T2 construct: host or cells: Flp-In-293
# T2 sequence (O15552 1-330): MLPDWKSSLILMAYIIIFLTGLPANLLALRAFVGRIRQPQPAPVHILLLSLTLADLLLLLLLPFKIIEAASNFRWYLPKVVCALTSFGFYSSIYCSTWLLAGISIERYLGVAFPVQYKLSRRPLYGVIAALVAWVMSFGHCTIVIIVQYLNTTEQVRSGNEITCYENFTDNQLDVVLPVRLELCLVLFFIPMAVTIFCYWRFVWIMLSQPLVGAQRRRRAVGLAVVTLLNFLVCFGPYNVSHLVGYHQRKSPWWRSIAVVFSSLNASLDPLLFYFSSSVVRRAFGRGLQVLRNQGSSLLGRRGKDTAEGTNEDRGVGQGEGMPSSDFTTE
# Procedure: as §1, §2, §3
# HCA2/GPR109A = target: T3, HCA2/GPR109A (Homo sapiens, UniProt Q8TDS4); experiment: forskolin-stimulated cAMP accumulation assay, Flp-In-293 cells stably expressing HCA2/GPR109A; type: cell-based; conditions: for activity towards HCA2/GPR109A (in words): cAMP assay; for inhibition at 50 µM: 50 µM compound, NA = not active up to 50 µM
# T3 construct: expressed in transfected cells; host or cells: Flp-In-293
# T3 sequence (Q8TDS4 whole entry): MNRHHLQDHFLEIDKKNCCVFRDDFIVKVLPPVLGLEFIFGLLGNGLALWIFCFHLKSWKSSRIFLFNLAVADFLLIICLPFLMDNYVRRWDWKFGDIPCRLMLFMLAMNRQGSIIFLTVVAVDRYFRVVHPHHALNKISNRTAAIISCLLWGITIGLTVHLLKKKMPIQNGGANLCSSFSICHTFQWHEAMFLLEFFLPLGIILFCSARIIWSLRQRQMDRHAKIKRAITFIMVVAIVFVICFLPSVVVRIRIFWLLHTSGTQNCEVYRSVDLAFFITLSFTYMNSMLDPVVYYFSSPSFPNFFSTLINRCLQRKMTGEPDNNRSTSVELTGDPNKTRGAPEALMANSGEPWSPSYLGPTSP
# Procedure: as §1
# Flp-In-293 cells stably expressing human HCA2/GPR109A receptor (laboratory collection) were grown in DMEM medium supplemented with 10% FBS, penicillin, streptomycin, and hygromycin B (100 µg/mL). All cells were cultured at 37 °C in a humidified incubator containing 5% CO2.
# as §3
# [1] = cyclic voltammetry, electrooxidation potential; type: physicochemical; conditions: vs. Ag/Ag+; acetonitrile, glassy carbon electrode
# Procedure: Cyclic voltammetry experiments were carried out using a PARSTAT 2273 electrochemical system. A stationary glassy carbon disk electrode (d = 0.8 mm) served as the working electrode, while the counter electrode was a Pt wire. The oxidation potentials were measured relative to an Ag/Ag^+ reference electrode. Acetonitrile was dried over P2O5 and distilled; the distillate was stored over CaH2 and redistilled immediately prior to use. Recrystallized tetrabutylammonium tetrafluoroborate (TBATFB) was used as a supporting electrolyte at 0.1 M concentration.
# [2] = HCA2, mean ± SD, read-out: HCA2/GPR109A Emax, maximal inhibition of forskolin-stimulated cAMP (converted)
# [3] = inhibition of forskolin-stimulated cAMP, mean ± SD, read-out: HCA2/GPR109A EC50
Compound,inhibition at 50 µM (FFA3/GPR41) [%],Emax (FFA3/GPR41) [%],EC50 (FFA3/GPR41) [nM],inhibition at 50 µM (FFA2/GPR43) [%],Emax (HCA2/GPR109A; [2]) [%],EC50 (HCA2/GPR109A; [3]) [nM],other results
"CC1=C(C(=O)Nc2ccc(Cl)cc2)C(c2cccs2)C2=C(CCCC2=O)N1 (centres unmarked) [1-5, N-(4-Chlorophenyl)-2-methyl-5-oxo-4-(thiophen-2-yl)-1,4,5,6,7,8-hexahydroquinoline-3-carboxamide]",45 ± 9,,,,,,
"CC1=C(C(=O)Nc2ccc(Cl)cc2Cl)C(c2cccs2)C2=C(CCCC2=O)N1 (centres unmarked) [1-6, N-(2,4-Dichlorophenyl)-2-methyl-5-oxo-4-(thiophen-2-yl)-1,4,5,6,7,8-hexahydroquinoline-3-carboxamide]",,82,1400 ± 170,,,,
"CC1=C(C(=O)Nc2ccccn2)C(c2cccs2)C2=C(CCCC2=O)N1 (centres unmarked) [1-7, 2-Methyl-5-oxo-N-(pyridin-2-yl)-4-(thiophen-2-yl)-1,4,5,6,7,8-hexahydroquinoline-3-carboxamide]",,,,49 ± 8,,,activity towards FFA3/GPR41 (in words) (FFA3/GPR41): lost; activity towards FFA2/GPR43 (in words) (FFA2/GPR43): showed activity
"CC1=C(C(=O)N2CCOCC2)C(c2cccs2)C2=C(CCCC2=O)N1 (centres unmarked) [1-8, 2-Methyl-3-(morpholine-4-carbonyl)-4-(thiophen-2-yl)-4,6,7,8-tetrahydro-1H-quinolin-5-one]",28 ± 2,,,,,,activity towards HCA2/GPR109A (in words) (HCA2/GPR109A): lacked activity; activity towards FFA2/GPR43 (in words) (FFA2/GPR43): lacked activity
CCOC(=O)COC(=O)C1=C(C)NC2=C(C(=O)CCC2)C1c1cccs1 (centres unmarked) [1-9],,91,1900 ± 400,40 ± 2,,,"El.ox. pot. (first, lower potential) [1]: 1.18 V"
"CCOC(=O)C(OC(=O)C1=C(C)NC2=C(C(=O)CCC2)C1c1cccs1)c1ccccc1 (centres unmarked) [1-10, (2-Ethoxy-2-oxo-1-phenylethyl)2-methyl-5-oxo-4-(2-thienyl)-4,6,7,8-tetrahydro-1H-quinoline-3-carboxylate]",49 ± 15,,,31 ± 4,,,"inhibition at 50 µM (HCA2/GPR109A; HCA2): 60 ± 5%; El.ox. pot. (first, lower potential) [1]: 1.18 V"
CCCNCC1=C(C(=O)OCC)C(c2ccc(-c3ccccc3)cc2)C2=C(CC(C)(C)CC2=O)N1 (centres unmarked) [1-11],51 ± 6,,,55 ± 6,,,inhibition at 50 µM (HCA2/GPR109A; HCA2): 52 ± 5%
CCN1CC2=C(C1=O)C(c1ccc(-c3ccccc3)cc1)C1=C(CC(C)(C)CC1=O)N2 (centres unmarked) [1-12],16 ± 8,,,21 ± 4,,,inhibition at 50 µM (HCA2/GPR109A; HCA2): 16 ± 4%; activity towards HCA2/GPR109A (in words) (HCA2/GPR109A): low activity; activity towards FFA3/GPR41 (in words) (FFA3/GPR41): low activity; activity towards FFA2/GPR43 (in words) (FFA2/GPR43): low activity
CC(=O)OCCN1C2=C(C(=O)CC(C)(C)C2)C(c2ccccc2)C2=C1CC(C)(C)CC2=O [1-13],30 ± 9,,,32 ± 7,,,inhibition at 50 µM (HCA2/GPR109A; HCA2): 26 ± 8%
CCOC(=O)C1=C(C(=O)O)NC2=C(C(=O)CC(C)(C)C2)C1c1ccc(-c2ccccc2)cc1 (centres unmarked) [1-14],,,,,,,activity towards HCA2/GPR109A (in words) (HCA2/GPR109A): completely lacked activity; activity towards FFA3/GPR41 (in words) (FFA3/GPR41): completely lacked activity; activity towards FFA2/GPR43 (in words) (FFA2/GPR43): completely lacked activity
Cc1cc(=O)oc2[nH]c(=S)[nH]c(=O)c12 [2-1],,89,4800 ± 360,,96,7100 ± 1310,Emax (FFA2/GPR43): 87%; EC50 (FFA2/GPR43): 19000 ± 6800 nM
CCc1cc(=O)oc2[nH]c(=S)[nH]c(=O)c12 [2-2],,,370 ± 80,,,,"EC50 (HCA2/GPR109A): 490 ± 60 nM; Emax (HCA2/GPR109A; HCA2, read-out: HCA2/GPR109A Emax, maximal inhibition of forskolin-stimulated cAMP): 99%; Emax (FFA2/GPR43): 91%; EC50 (FFA2/GPR43): 920 ± 40 nM"
"CCCc1cc(=O)oc2[nH]c(=S)[nH]c(=O)c12 [2-3, 5-Propyl-2-thioxo-2,3-dihydro-1H-pyrano[2,3-d]pyrimidine-4,7-dionee]",38 ± 2,,,29 ± 3,86,870 ± 110,
"CCCCc1cc(=O)oc2[nH]c(=S)[nH]c(=O)c12 [2-4, 5-Butyl-2-thioxo-2,3-dihydro-1H-pyrano[2,3-d]pyrimidine-4,7-dione]",,95,190 ± 30,,97,550 ± 40,Emax (FFA2/GPR43): 93%; EC50 (FFA2/GPR43): 740 ± 80 nM
CCCCc1cc(=O)oc2[nH]c(=O)[nH]c(=O)c12 [2-5],28 ± 4,,,,93,51 ± 7,El.ox. pot. (single value) [1]: 1.94 V
"O=c1cc(CCCCCl)c2c(=O)[nH]c(=S)[nH]c2o1 [2-6, 5-(4-Chlorobutyl)-2-thioxo-2,3-dihydro-1H-pyrano[2,3-d]pyrimidine-4,7-dione]",,89,340 ± 50,,94,350 ± 20,Emax (FFA2/GPR43): 83%; EC50 (FFA2/GPR43): 2500 ± 400 nM
"CCCCc1cc(=O)oc2[nH]c(SCC(=O)OCC)nc(=O)c12 [3-1, Ethyl 5-butyl-4,7-dioxo-1,7-dihydro-4H-(pyrano[2,3-d]pyrimidin-2-ylsulfanyl)acetate]",,95,1600 ± 500,65 ± 1,93,75000 ± 11000,El.ox. pot. (single value) [1]: 1.97 V
CCOC(=O)CSc1nc(=O)c2c(CCCCCl)cc(=O)oc2[nH]1 [3-2],,91,1700 ± 200,64 ± 2,89,43000 ± 8000,
"NC(=O)CSc1nc(=O)c2c(CCCCCl)cc(=O)oc2[nH]1 [3-5, 2-[5-(4-Chlorobutyl)-4,7-dioxo-1,7-dihydro-4H-pyrano[2,3-d]pyrimidin-2-ylsulfanyl]-acetamide]",20 ± 4,,,42 ± 2,87,62000 ± 10000,El.ox. pot. (single value) [1]: 1.93 V
"O=C(CSc1nc(=O)c2c(CCCCCl)cc(=O)oc2[nH]1)Nc1ccccc1C(=O)O [3-7, 2-2-[5-(4-Chlorobutyl)-4,7-dioxo-1,7-dihydro-4H-pyrano[2,3-d]pyrimidin-2-ylsulfanyl]-acetamino-benzoic acid]",,87,4600 ± 600,52 ± 10,,,inhibition at 50 µM (HCA2/GPR109A; HCA2): 30 ± 6%
